Values quoted from earlier work as cited in patent US10456335B2, “Oral hygiene compositions and methods” (Carson Laboratories, I.P., Inc., priority 2008, dated 2019).

Conditions: eight hour time weighted average

OSHA permissible exposure limit: 1 ppm
Compound: OO [hydrogen peroxide]
